This passage reports IC50, DC50 and Dmax results from US20220348595A1, “COMPOUNDS AND METHODS FOR THE TARGETED DEGRADATION OF ESTROGEN RECEPTORS” (Endotarget Inc., priority 2021, published 2022).

Like-named read-outs stand apart in the source and are kept apart here.

Holding throughout (format): cell-based
One experiment has as its target T1, ER (Homo sapiens, UniProt P03372).
T1 construct: endogenous in cells; host or cells: T47d-kb-Luc (T47D stably transfected with a luciferase reporter gene only)
T1 sequence (P03372 1-595): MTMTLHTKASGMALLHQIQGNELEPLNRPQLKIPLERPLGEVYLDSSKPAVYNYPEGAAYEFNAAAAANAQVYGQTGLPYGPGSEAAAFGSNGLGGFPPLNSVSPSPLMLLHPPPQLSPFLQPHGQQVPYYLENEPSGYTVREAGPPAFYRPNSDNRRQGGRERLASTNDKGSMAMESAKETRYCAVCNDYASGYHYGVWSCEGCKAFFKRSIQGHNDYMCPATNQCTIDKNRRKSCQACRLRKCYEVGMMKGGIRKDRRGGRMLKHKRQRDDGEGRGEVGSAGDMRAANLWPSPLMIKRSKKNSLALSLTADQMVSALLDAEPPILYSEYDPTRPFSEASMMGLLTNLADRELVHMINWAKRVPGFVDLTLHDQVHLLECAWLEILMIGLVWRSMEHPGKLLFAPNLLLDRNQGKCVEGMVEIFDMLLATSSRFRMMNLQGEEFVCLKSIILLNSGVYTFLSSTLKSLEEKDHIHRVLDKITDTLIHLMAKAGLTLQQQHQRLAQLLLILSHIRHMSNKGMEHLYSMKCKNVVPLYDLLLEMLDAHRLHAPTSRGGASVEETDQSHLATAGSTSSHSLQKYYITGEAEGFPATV
Description: ER antagonism (T47D ERE luciferase), T47d-kb-Luc cells. The conditions noted are these: read-out: IC50 (ER antagonistm). The method in brief:
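Five sample concentrations, each in quadruplicate and repeated in at least three experiments, were tested for blocking of estradiol activity. Values were expressed relative to the estradiol control. The cell system was the T47d-kb-Luc stable breast cancer line.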

The target in a further experiment is T2, ERα (Homo sapiens, UniProt P03372).
T2 construct: endogenous in cells; host or cells: MCF-7
T2 sequence (P03372 1-595): T1 sequence (P03372 1-595)
The experiment can be described thus: ER degradation in MCF-7 cells (Western blot). Conditions: for DC50: ER degradation, 24 hours; for Dmax: MCF7, Maximal ER degradation, read-out: Dmax. In short, it runs like this:
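ERα levels assessed by Western blot (50 μg lysate protein, infrared scanner) after 24-hour exposure of MCF-7 cells to varied compound concentrations. Values reported as DC50, the concentration halving ER expression, and Dmax, the maximal ER reduction achieved across tested concentrations.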
For orientation: Immunoblotting shows a protein as a band on a membrane.

Experiment [1] concerns MCF-7 breast cancer cells. The experiment can be described thus: MCF-7 proliferation / cell viability assay. The conditions noted are these: MCF-7 proliferation with 0.1 nM 17-beta estradiol, read-out: IC50 (anti-proliferation). The method in brief: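 Survival ratio, with vehicle (DMSO) as 100%, was derived from Coulter-counted viable cell numbers. Cells were grown in 5% FBS DMEM and dosed for 5 days across six concentrations between 10^−10 M and 10^−5 M.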

One may read the DC50 as the concentration giving 50% degradation. Low values mean degradation at low concentration, high ones degradation only at high concentration. Broadly, the Dmax is the largest share of the target that was removed. For `CC/C(=C(/c1ccc(O)cc1)c1ccc(OCCN2CCN(C(=O)N3CCN(c4ccc5c(c4)CN([C@@H]4CCC(=O)NC4=O)C5=O)CC3)CC2)cc1)c1ccccc1` [Compound 82], on ER, the IC50 is less than 10 nM. Also, on ERα, the DC50 is less than 10 nM and the Dmax was more than 90%. Besides, in experiment [1] (Homo sapiens, MCF7), the IC50 is less than 10 nM.
For `CC/C(=C(/c1ccc(B(O)O)cc1)c1ccc(N2CCC(CN3CCN(c4ccc5c(c4)CN(C4CCC(=O)NC4=O)C5=O)CC3)CC2)cc1)c1ccccc1` (centres unmarked) [Compound 2, (E)-(4-(1-(4-(4-((4-(2-(2,6-dioxopiperidin-3-yl)-1-oxoisoindolin-5-yl)piperazin-1-yl)methyl)piperidin-1-yl)phenyl)-2-phenylbut-1-en-1-yl)phenyl)boronic acid], the IC50 on ER lay within 10 to 50 nM. For the same compound, at ERα, the DC50 is less than 10 nM and the Dmax is more than 90%. Moreover, in experiment [1] (Homo sapiens, MCF7), the IC50 lay within 10 to 50 nM.
As to `CC/C(=C(\c1ccc(OCCN2CCC(N3CCN(c4ccc5c(c4)C(=O)N(C4CCC(=O)NC4=O)C5=O)CC3)CC2)cc1)c1ccc(B(O)O)cc1)c1ccccc1` (centres unmarked) [Compound 32, (E)-(4-(1-(4-(2-(4-(4-(2-(2,6-dioxopiperidin-3-yl)-1,3-dioxoisoindolin-5-yl)piperazin-1-yl)piperidin-1-yl)ethoxy)phenyl)-2-phenylbut-1-en-1-yl)phenyl)boronic acid], the IC50 on ER is more than 50 nM. On ERα, the DC50 was in the range of 10 to 50 nM and the Dmax is more than 90%. Besides, the IC50 in experiment [1] (Homo sapiens, MCF7) is more than 50 nM.
Take `CCC(=C(c1ccc(OCCN2CCN(CC3CCN(c4ccc5c(c4)C(=O)N(C4CCC(=O)NC4=O)C5=O)CC3)CC2)cc1)c1ccc(B(O)O)cc1)c1ccccc1` (stereo in doubt) [Compound 18, (E)-(4-(1-(4-(2-(4-((1-(2-(2,6-dioxopiperidin-3-yl)-1,3-dioxoisoindolin-5-yl)piperidin-4-yl)methyl)piperazin-1-yl)ethoxy)phenyl)-2-phenylbut-1-en-1-yl)phenyl)boronic acid]: the IC50 (at ER; in experiment [1]) was 10 to 50 nM throughout. On ERα, this compound displayed a DC50 of less than 10 nM.
Consider `CC/C(=C(\c1ccc(B(O)O)cc1)c1ccc(C2CCN(CCCN3CCN(c4ccc5c(c4)C(=O)N(C4CCC(=O)NC4=O)C5=O)CC3)CC2)cc1)c1ccccc1` (centres unmarked) [Compound 47], for which the IC50 at ER lay in the range of 10 to 50 nM; in experiment [1] (Homo sapiens, MCF7), 10 to 50 nM. The DC50 at ERα is less than 10 nM. Moreover, the Dmax on ERα was more than 90%.
Take `CC/C(=C(/c1ccc(O)cc1)c1ccc(N2CCN(C(=O)N3CCC(N4CCN(c5ccc6c(c5)CN(C5CCC(=O)NC5=O)C6=O)CC4)CC3)CC2)cc1)c1ccccc1` (centres unmarked) [Compound 111, (Z)-3-(5-(4-(1-(4-(4-(1-(4-hydroxyphenyl)-2-phenylbut-1-en-1-yl)phenyl)piperazine-1-carbonyl)piperidin-4-yl)piperazin-1-yl)-1-oxoisoindolin-2-yl)piperidine-2,6-dione]: the IC50 on ER is less than 10 nM; in experiment [1] (Homo sapiens, MCF7), 10 to 50 nM. Moreover, the DC50 at ERα lay in the range of 10 to 50 nM. In addition, on ERα, the Dmax is more than 90%.
For the compound `CC/C(=C(\c1ccc(O)cc1)c1ccc(N2CCN(C(=O)N3CCC(N4CCN(c5ccc6c(c5)CN(C5CCC(=O)NC5=O)C6=O)CC4)CC3)CC2)cc1)c1ccccc1` (centres unmarked) [Compound 109, (E)-3-(5-(4-(1-(4-(4-(1-(4-hydroxyphenyl)-2-phenylbut-1-en-1-yl)phenyl)piperazine-1-carbonyl)piperidin-4-yl)piperazin-1-yl)-1-oxoisoindolin-2-yl)piperidine-2,6-dione], the IC50 on ER is less than 10 nM; in experiment [1] (Homo sapiens, MCF7), 10 to 50 nM. This compound registered a DC50 at ERα of 10 to 50 nM. Further, at ERα, the Dmax is more than 90%.
Take `CC/C(=C(\c1ccc(B(O)O)cc1)c1ccc(N2CCC(CCN3CCN(c4ccc5c(c4)CN(C4CCC(=O)NC4=O)C5=O)CC3)CC2)cc1)c1ccccc1` (centres unmarked) [Compound 7, (Z)-(4-(1-(4-(4-(2-(4-(2-(2,6-dioxopiperidin-3-yl)-1-oxoisoindolin-5-yl)piperazin-1-yl)ethyl)piperidin-1-yl)phenyl)-2-phenylbut-1-en-1-yl)phenyl)boronic acid]: the IC50 on ER is less than 10 nM. Further, on ERα, the DC50 was 10 to 50 nM and the Dmax is more than 90%. Besides, the IC50 in experiment [1] (Homo sapiens, MCF7) is 10 to 50 nM.
In the case of `CC/C(=C(\c1ccc(B(O)O)cc1)c1ccc(N2CCN(CCCC3CCN(c4ccc5c(c4)C(=O)N(C4CCC(=O)NC4=O)C5=O)CC3)CC2)cc1)c1ccccc1` (centres unmarked) [Compound 55, (Z)-(4-(1-(4-(4-(3-(1-(2-(2,6-dioxopiperidin-3-yl)-1,3-dioxoisoindolin-5-yl)piperidin-4-yl)propyl)piperazin-1-yl)phenyl)-2-phenylbut-1-en-1-yl)phenyl)boronic acid], the IC50 at ER fell in the range of 10 to 50 nM; in experiment [1] (Homo sapiens, MCF7), 10 to 50 nM. At ERα, this compound had a DC50 of less than 10 nM. Besides, the Dmax at ERα is more than 75%.
On to `CC/C(=C(\c1ccc(B(O)O)cc1)c1ccc(N2CCN(CCCN3CCN(c4ccc5c(c4)C(=O)N(C4CCC(=O)NC4=O)C5=O)CC3)CC2)cc1)c1ccccc1` (centres unmarked) [Compound 43, (Z)-(4-(1-(4-(4-(3-(4-(2-(2,6-dioxopiperidin-3-yl)-1,3-dioxoisoindolin-5-yl)piperazin-1-yl)propyl)piperazin-1-yl)phenyl)-2-phenylbut-1-en-1-yl)phenyl)boronic acid], for which the IC50 is 10 to 50 nM on ER and less than 10 nM in experiment [1] (Homo sapiens, MCF7). The compound also came in with a DC50 on ERα of less than 10 nM. The maximal degradation (Dmax) at ERα was more than 90%.
As for `CC/C(=C(\c1ccc(OCCN2CCN(CCCN3CCN(c4ccc5c(c4)C(=O)N(C4CCC(=O)NC4=O)C5=O)CC3)CC2)cc1)c1ccc(B(O)O)cc1)c1ccccc1` (centres unmarked) [Compound 38, (E)-(4-(1-(4-(2-(4-(3-(4-(2-(2,6-dioxopiperidin-3-yl)-1,3-dioxoisoindolin-5-yl)piperazin-1-yl)propyl)piperazin-1-yl)ethoxy)phenyl)-2-phenylbut-1-en-1-yl)phenyl)boronic acid], the IC50 on ER lay within 10 to 50 nM. In addition, on ERα, the DC50 is less than 10 nM and the Dmax was more than 90%. Further, in experiment [1] (Homo sapiens, MCF7), the IC50 was 10 to 50 nM.
As for `CC/C(=C(\c1ccc(B(O)O)cc1)c1ccc(N2CCN(C(=O)N3CCN(c4ccc5c(c4)CN(C4CCC(=O)NC4=O)C5=O)CC3)CC2)cc1)c1ccccc1` (centres unmarked) [Compound 103, (Z)-(4-(1-(4-(4-(4-(2-(2,6-dioxopiperidin-3-yl)-1-oxoisoindolin-5-yl)piperazine-1-carbonyl)piperazin-1-yl)phenyl)-2-phenylbut-1-en-1-yl)phenyl)boronic acid], on ER, the IC50 is less than 10 nM. Besides, at ERα, the DC50 was less than 10 nM and the maximal degradation (Dmax) is more than 90%. The IC50 in experiment [1] (Homo sapiens, MCF7) is less than 10 nM.
As for `CC/C(=C(\c1ccc(B(O)O)cc1)c1ccc(N2CCN(CCN3CCN(c4ccc5c(c4)CN(C4CCC(=O)NC4=O)C5=O)CC3)CC2)cc1)c1ccccc1` (centres unmarked) [Compound 61, (Z)-(4-(1-(4-(4-(2-(4-(2-(2,6-dioxopiperidin-3-yl)-1-oxoisoindolin-5-yl)piperazin-1-yl)ethyl)piperazin-1-yl)phenyl)-2-phenylbut-1-en-1-yl)phenyl)boronic acid], the IC50 at ER was 10 to 50 nM; in experiment [1] (Homo sapiens, MCF7), 10 to 50 nM. The half-maximal degradation concentration (DC50) on ERα is less than 10 nM. Moreover, the maximal degradation (Dmax) at ERα was more than 90%.
In the case of `CC/C(=C(/c1ccc(B(O)O)cc1)c1ccc(N2CCN(C(=O)N3CCN(c4ccc5c(c4)CN([C@@H]4CCC(=O)NC4=O)C5=O)CC3)CC2)cc1)c1ccccc1` [Compound 108, (R,E)-(4-(1-(4-(4-(4-(2-(2,6-dioxopiperidin-3-yl)-1-oxoisoindolin-5-yl)piperazine-1-carbonyl)piperazin-1-yl)phenyl)-2-phenylbut-1-en-1-yl)phenyl)boronic acid], the IC50 at ER is less than 10 nM. Besides, at ERα, the DC50 is less than 10 nM and the Dmax is more than 90%. For the same compound, the IC50 in experiment [1] (Homo sapiens, MCF7) was less than 10 nM.
Take `CC/C(=C(/c1ccc(B(O)O)cc1)c1ccc(N2CCN(CCN3CCN(c4ccc5c(c4)CN(C4CCC(=O)NC4=O)C5=O)CC3)CC2)cc1)c1ccccc1` (centres unmarked) [Compound 62, (E)-(4-(1-(4-(4-(2-(4-(2-(2,6-dioxopiperidin-3-yl)-1-oxoisoindolin-5-yl)piperazin-1-yl)ethyl)piperazin-1-yl)phenyl)-2-phenylbut-1-en-1-yl)phenyl)boronic acid]: the IC50 at ER fell in the range of 10 to 50 nM. Further, at ERα, the 50% degradation concentration (DC50) is less than 10 nM and the Dmax is more than 90%. Besides, the IC50 in experiment [1] (Homo sapiens, MCF7) fell in the range of 10 to 50 nM.
